Assay results: patent US20260364184A1, “COMPOUND BASED ON OXOISOINDOLINYL-SUBSTITUTED TETRAHYDROPYRIMIDINE-DIONE AND USE THEREOF” (GLUETACS THERAPEUTICS (SHANGHAI) CO., LTD., priority 2023, published 2026)
Where two headings read alike, the source gives them in different places.

Columns and labels:
[1] = system: Human diffuse large B-cell lymphoma cell line (TMD8); experiment: Inhibition of TMD8 cell proliferation (CellTiter luminescent viability); type: cell-based; conditions: Homo sapiens, TMD8, 96 h; for inhibition at 0.01 µM: TMD8, 10 nM, read-out: Inhibition Rate at 10 nM (%); for inhibition at 0.5 µM: TMD8, 500 nM, read-out: Inhibition Rate at 500 nM (%)
Description: The tumor cells used herein were cultured in a cell culture medium listed in table 3 at 37 °C in an incubator with 5% CO2. Prior to experimentation, all cell lines used were correctly identified by STR profiling, and tested negative for mycoplasma contamination using a mycoplasma detection kit through routine screenings.
The IC50 values of the compounds of the present disclosure (including the compounds in Table 1, Table 2, and Examples 1-468) were determined using the CellTiter-Meiluncell Luminescent Cell Viability Assay Kit from Dalian Meilun Biotech Co., Ltd. The detailed procedure is as follows: Tumor cells were seeded in 96-well cell culture plates at the densities specified in Table 4. On the following day, the test compounds of the present disclosure were subjected to serial dilution. The dilution can be performed according to one of the following two methods: • (1) The first dilution method: The test compounds of the present disclosure (including the compounds in Table 1, Table 2, and Examples 1-468) were subjected to 5-fold serial dilutions starting from a highest concentration of 2000 μM, resulting in a total of 9 concentrations from high to low (2000, 400, 80, 16, 3.2, 0.64, 0.128, 0.0256, 0.00512 μM). Subsequently, 0.5 μL of the test compound dilution was transferred into the 96-well plate containing the cells, with each well containing 100 μL of cell culture medium. […] Into the 96-well plate, the diluted test compounds and corresponding detection reagents were added, resulting in final test compound concentrations of 500 nM and 10 nM, respectively. The experimental procedure is described below using the diluted 2 μM test compound as an example.
0.5 μL of the aforementioned diluted compound of the present disclosure (including the compounds in Table 1, Table 2, and Examples 1-468) was added to the seeded cells in 100 μL of medium, yielding a final test compound concentration of 10 nM. After the cells were treated with the compounds of the present disclosure for a specified period, the cell viability assay reagent was added to the culture medium according to the kit's instructions to determine cell viability. […] All controls were treated using the same procedure as the compounds of the present disclosure. The growth inhibition curves for the compounds of the present disclosure were plotted using Prism GraphPad software, and the IC50 values were calculated therefrom.

[2] = system: Human myeloid monocytic leukemia cell line (MV-4-11); experiment: Inhibition of MV-4-11 cell proliferation (CellTiter luminescent viability); type: cell-based; conditions: Homo sapiens, MV4-11, Table IG2, FAK inhibitor-based, 96 hours
Method in brief: (§1)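 Cells are seeded in 96-well plates, cultured at 37 °C, 5% CO2, and treated next day with 5-fold serial compound dilutions (stock series from 2000 μM; 0.5 μL into 100 μL medium). Viability is read by CellTiter-Meiluncell luminescence after the set exposure, and IC50 is taken from growth-inhibition curves.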

[3] = biological target: T1, human Cereblon WT GST-tagged protein (CRBN) (Homo sapiens, UniProt Q96SW2); experiment: CRBN binding by HTRF (Cereblon binding kit); conditions: for inhibition at 0.5 µM: read-out: Inhibition Rate at 0.5 μM (%); for inhibition at 2 µM: read-out: Inhibition Rate at 2 μM (%)
T1 construct: purchased CISBIO 64BDCRBNPEH
Description: The CEREBLON BINDING kits (specification: 10,000 tests; product number: Catalog #64BDCRBNPEH; CISBIO company) was used to determine the CRBN binding ability of the compounds to be tested through a HTRF method (homogeneous time-resolved fluorescence). The specific methods are as follows: • 1. According to the instructions of the CEREBLON BINDING KITS, serial dilutions were performed for the test compounds of the present disclosure (including the compounds in Table 1, Table 2, and Examples 1-468) and for lenalidomide. Specifically, diluent #9 (1×) solution was used as the diluent, and multiple concentration gradients were set. The dilution operation can be performed according to one of the following two methods: • (1) The first dilution method: The test compounds of the present disclosure (including the compounds in Table 1, Table 2, and Examples 1-468) were subjected to 5-fold serial dilutions starting from a highest concentration of 40 μM, resulting in a total of 7 concentrations from high to low (40, 8, 1.6, 0.32, 0.064, 0.0128, 0.00256 μM). Subsequently, the diluted test compounds and corresponding detection reagents were added to each well of a 96-well plate, resulting in final test compound concentrations of 10, 2, 0.4, 0.08, 0.016, 0.0032, and 0.00064 μM, respectively. • (2) As an alternative, a second dilution method can be used: The test compounds of the present disclosure (including the compounds in Table 1, Table 2, and Examples 1-468) were subjected to 4-fold gradient dilutions starting from a highest concentration of 8 μM, resulting in 2 concentrations (8 μM, 2 μM). Into the 96-well plate, the diluted test compounds and corresponding detection reagents were added, resulting in final test compound concentrations of 2 μM and 0.5 μM, respectively. The experimental procedure is described below using the diluted 8 μM test compound and lenalidomide solutions as examples. • 2. 2.5 μL of the above 8 μM of the tested compounds and lenalidomide solution, as well as the same volume of diluent #9 (1×) solution (solvent control group, Std0) were added to each well of a 96-well plate, respectively. Then, 2.5 μL of human Cereblon WT GST-tagged protein solution was added to each well. Finally, 5 μL of the thoroughly mixed Thalidomide-Re reagent and GST Eu antibody working solution were added to each of the aforementioned wells. The final concentration of the tested compounds and lenalidomide in each well was 2 μM. • 3. The blank control wells were sequentially added with 2.5 μL of diluent #9 (1×) solution, 2.5 μL of PROTAC binding buffer, and 5 μL of thoroughly mixed Thalidomide-Re reagent and GST Eu antibody working solution. • 4. After sealing and incubating the solutions in the aforementioned wells at room temperature for 3 hours, the absorbance values at emission wavelengths of 620 nm and 665 nm were detected by the HTRF method using a Spark microplate reader (V3.1 SP1).
The corresponding CRBN binding inhibition rate was calculated using the following method:
Rcompound=OD 665 nmcompound/OD 620 nmcompound−OD 665 nmcontrol/OD 620 nmcontrol
RStd0=OD 665 nmStd0/OD 620 nmStd0−OD 665 nmcontrol/OD 620 nmcontrol inhibition rate (%)=(1−Rcompound/RStd0)*100
Note: OD 665 nmcompound is the absorbance value of each well of the compounds to be tested of the present disclosure at an emission wavelength of 665 nm. OD 620 nmcompound is the absorbance value of each well of the compounds to be tested of the present disclosure at an emission wavelength of 620 nm. OD 665 nmcontrol is the absorbance value of the blank control well at an emission wavelength of 665 nm. OD 620 nmcontrol is the absorbance value of the blank control well at an emission wavelength of 620 nm. OD 665 nmStd0 is the absorbance value of the solvent control well at an emission wavelength of 665 nm. OD 620 nmStd0 is the absorbance value of the solvent control well at an emission wavelength of 620 nm.

[4] = system: Human Multiple myeloma cell line (MM.1S); experiment: Inhibition of MM.1S cell proliferation (CellTiter luminescent viability); type: cell-based; conditions: Homo sapiens, MM1.S, Table IG1, FAK inhibitor-based, 96 hours
Method in brief: as §1

IRAK4 = biological target: T2, IRAK4 (Homo sapiens, UniProt Q9NWZ3); experiment: Western blot degradation of IRAK4; type: cell-based; conditions: hPBMC Cell; 24 hours
T2 construct: expression of target proteins in cells; endogenous in cells
T2 sequence (Q9NWZ3 1-460): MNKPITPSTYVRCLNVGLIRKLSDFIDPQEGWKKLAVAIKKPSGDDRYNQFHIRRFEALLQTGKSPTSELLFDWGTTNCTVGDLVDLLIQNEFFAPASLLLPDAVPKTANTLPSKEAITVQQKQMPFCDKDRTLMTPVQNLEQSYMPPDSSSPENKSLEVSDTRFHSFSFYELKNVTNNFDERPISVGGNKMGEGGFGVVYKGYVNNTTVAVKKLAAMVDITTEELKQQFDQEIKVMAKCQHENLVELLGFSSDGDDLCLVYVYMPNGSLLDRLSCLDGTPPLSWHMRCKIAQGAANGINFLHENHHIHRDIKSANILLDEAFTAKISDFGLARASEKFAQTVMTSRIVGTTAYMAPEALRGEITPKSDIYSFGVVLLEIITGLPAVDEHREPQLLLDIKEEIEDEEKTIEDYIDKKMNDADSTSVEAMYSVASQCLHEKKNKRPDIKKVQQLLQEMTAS
Method in brief: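 Compound-treated cells harvested; lysates denatured 5 min at 95 °C, run on SDS-PAGE, blotted to NC membrane, blocked 1 h RT, probed with antibodies. Densitometry vs DMSO → DC50; target normalised to internal control → % remaining, degradation = 1 − remaining.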

T1 sequence (Q96SW2 whole entry): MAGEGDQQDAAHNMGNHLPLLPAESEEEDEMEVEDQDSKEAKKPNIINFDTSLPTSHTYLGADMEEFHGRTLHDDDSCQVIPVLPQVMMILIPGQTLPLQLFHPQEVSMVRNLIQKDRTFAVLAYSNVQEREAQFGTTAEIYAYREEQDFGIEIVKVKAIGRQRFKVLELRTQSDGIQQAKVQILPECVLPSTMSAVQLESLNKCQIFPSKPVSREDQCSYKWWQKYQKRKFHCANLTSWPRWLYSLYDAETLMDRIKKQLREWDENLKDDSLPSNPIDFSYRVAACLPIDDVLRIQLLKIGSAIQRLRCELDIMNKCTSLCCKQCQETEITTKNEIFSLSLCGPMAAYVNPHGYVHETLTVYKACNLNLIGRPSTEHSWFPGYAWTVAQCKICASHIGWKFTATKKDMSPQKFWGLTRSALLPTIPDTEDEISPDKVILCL

SMILES | inhibition at 0.01 µM ([1]; Table IF1, AR inhibitor-based) | inhibition at 0.5 µM ([1]; Table IF1, AR inhibitor-based) | inhibition at 0.5 µM [3] | inhibition at 2 µM [3] | also measured
CC1(C)[C@H](NC(=O)c2ccc(N3CCC(CN4CCN(C5CCN(c6ccc7c(c6)C(=O)N(N6CCC(=O)NC6=O)C7=O)CC5(F)F)CC4)CC3)nc2)C(C)(C)[C@H]1Oc1ccc(C#N)c(Cl)c1 (some centres unmarked) [GT-05347, N-((1r,3r)-3-(3-chloro-4-cyanophenoxy)-2,2,4,4-tetramethylcyclobutyl)-6-(4-((4-(1-(2-(2,4-dioxotetrahydropyrimidin-1(2H)-yl)-1,3-dioxoisoindolin-5-yl)-3,3-difluoropiperidin-4-yl)piperazin-1-yl)methyl)piperidin-1-yl)nicotinamide] | 5 to 10% | 20 to 25% | – | – | –
Cn1c2ccncc2c2ccc(-c3cnc(N4CCN(CC5CCN(c6ccc7c(c6)C(=O)N(N6CCC(=O)NC6=O)C7=O)CC5)CC4)c(C(F)(F)F)c3)cc21 [GT-08553, 2-(2,4-dioxotetrahydropyrimidin-1(2H)-yl)-5-(4-((4-(5-(5-methyl-5H-pyrido[4,3-b]indol-7-yl)-3-(trifluoromethyl)pyridin-2-yl)piperazin-1-yl)methyl)piperidin-1-yl)isoindoline-1,3-dione] | – | – | – | – | inhibition at 0.01 µM ([1]; Table IJ3, Tau inhibitor-based): 10 to 15%; inhibition at 0.5 µM ([1]; Table IJ3, Tau inhibitor-based): 40 to 50%
CNC(=O)c1ccccc1Nc1cc(Nc2ccc(N3CCN(Cc4ccc5c(c4)CN(N4CCC(=O)NC4=O)C5=O)CC3)cc2OC)ncc1C(F)(F)F [GT-07660, 2-((2-((4-(4-((2-(2,4-dioxotetrahydropyrimidin-1(2H)-yl)-1-oxoisoindolin-5-yl)methyl)piperazin-1-yl)-2-methoxyphenyl)amino)-5-(trifluoromethyl)pyridin-4-yl)amino)-N-methylbenzamide] | – | – | 30 to 40% | 60 to 80% | inhibition at 0.01 µM ([2]; MV-4-11, 10 nM, read-out: Inhibition Rate at 10 nM (%)): 50 to 60%; inhibition at 0.5 µM ([2]; MV-4-11, 500 nM, read-out: Inhibition Rate at 500 nM (%)): 80 to 100%; inhibition at 0.01 µM ([4]; 10 nM, read-out: Inhibition Rate at 10 nM (%)): 15 to 20%; inhibition at 0.5 µM ([4]; 500 nM, read-out: Inhibition Rate at 500 nM (%)): 60 to 80%
O=C1CCN(N2C(=O)c3ccc(N4CC5CCC4CN5C[C@H]4CC[C@H](n5cc(NC(=O)c6cnn7ccc(N8C[C@H]9C[C@@H]8CO9)nc67)c(C(F)F)n5)CC4)cc3C2=O)C(=O)N1 [GT-05833, 5-((1R,4R)-2-oxa-5-azabicyclo[2.2.1]heptan-5-yl)-N-(3-(difluoromethyl)-1-((1r,4R)-4-((5-(2-(2,4-dioxotetrahydropyrimidin-1(2H)-yl)-1,3-dioxoisoindolin-5-yl)-2,5-diazabicyclo[2.2.2]octan-2-yl)methyl)cyclohexyl)-1H-pyrazol-4-yl)pyrazolo[1,5-a]pyrimidine-3-carboxamide] | – | – | 40 to 53% | 60 to 80% | Degradation of substrate protein IRAK4 (substrate protein remaining %) (IRAK4): A (0%≤substrate protein remaining %≤80%)
N#Cc1ccc(O[C@H]2CC[C@H](NC(=O)c3ccc(N4CCC(CN5CCN(c6ccc7c(c6F)C(=O)N(N6CCC(=O)NC6=O)C7=O)CC5)CC4)nn3)CC2)cc1Cl [GT-05232, N-((1r,4r)-4-(3-chloro-4-cyanophenoxy)cyclohexyl)-6-(4-((4-(2-(2,4-dioxotetrahydropyrimidin-1(2H)-yl)-4-fluoro-1,3-dioxoisoindolin-5-yl)piperazin-1-yl)methyl)piperidin-1-yl)pyridazine-3-carboxamide] | 10 to 15% | 25 to 30% | – | – | –
O=C1CCN(N2C(=O)c3ccc(COc4ccc(Cl)cc4-c4nc5cc(C(F)(F)F)cc(Cl)c5[nH]4)cc3C2=O)C(=O)N1 [GT-06478, 5-((4-chloro-2-(7-chloro-5-(trifluoromethyl)-1H-benzo[d]imidazol-2-yl)phenoxy)methyl)-2-(2,4-dioxotetrahydropyrimidin-1(2H)-yl)isoindoline-1,3-dione] | 15 to 20% | 30 to 35% | – | – | –
